Laboratory results: patent publication US4237225A, “Process for preparing tunicamycin” (priority 1978, dated 1980)

Tests used:
Format in all cases: cell-based
Micrococcus luteus = assay: standard paper-disc inhibition test, zone of inhibition, Micrococcus luteus; details: in vitro
Source text: (§1) The zones of inhibition, as determined in these tests, are shown below: […]

Neurospora crassa = assay: standard paper-disc inhibition test, zone of inhibition, Neurospora crassa; details: in vitro
Source text: as §1

[1] = system: Saccharomyces pastorianus; assay: standard paper-disc inhibition test, zone of inhibition, Saccharomyces pastorianus; details: in vitro
Source text: as §1

Staphylococcus aureus = assay: standard paper-disc inhibition test, zone of inhibition, Staphylococcus aureus; details: in vitro
Source text: as §1

[2] = system: certain pathogenic organisms, particularly gram positive bacteria, fungi, and yeasts; assay: in vitro standard paper-disc inhibition tests (summary statement)
Source text: as §1

Bacillus subtilis = assay: standard paper-disc inhibition test, zone of inhibition, Bacillus subtilis; details: in vitro
Source text: as §1

Candida albicans = assay: standard paper-disc inhibition test, zone of inhibition, Candida albicans; details: in vitro
Source text: as §1

[3] = Bacillus subtilis in minimal medium

Compound	Zone Diameter (Micrococcus luteus)	Zone Diameter (Neurospora crassa)	Zone Diameter [1] [mm]	Zone Diameter (Staphylococcus aureus)	growth inhibition of certain pathogenic organisms [2]	Zone Diameter (Bacillus subtilis; [3]) [mm]	Zone Diameter (Bacillus subtilis; Bacillus subtilis) [mm]	Zone Diameter (Candida albicans) [mm]
CC(=O)NC1C(OC2OC(CC(O)C3OC(n4ccc(=O)[nH]c4=O)C(O)C3O)C(O)C(O)C2NC(=O)/C=C/CCCCCCCCCCC(C)C)OC(CO)C(O)C1O (stereo not drawn) [Tunicamycin B]	10 mm	10 mm	23	tr (trace (6.5-9 mm))	inhibit the growth	29	19	12
CC(=O)NC1C(OC2OC(CC(O)C3OC(n4ccc(=O)[nH]c4=O)C(O)C3O)C(O)C(O)C2NC(=O)/C=C/CCCCCCCCCCCC(C)C)OC(CO)C(O)C1O (stereo not drawn) [Tunicamycin D]	tr (trace (6.5-9 mm))	tr (trace (6.5-9 mm))	13	tr (trace (6.5-9 mm))	inhibit the growth	27	19	11
CC(=O)NC1C(OC2OC(CC(O)C3OC(n4ccc(=O)[nH]c4=O)C(O)C3O)C(O)C(O)C2NC(=O)/C=C/CCCCCCCCCC(C)C)OC(CO)C(O)C1O (stereo not drawn) [Tunicamycin A]		10 mm	18	tr (trace (6.5-9 mm))	inhibit the growth	35	25	15
CC(=O)NC1C(OC2OC(CC(O)C3OC(n4ccc(=O)[nH]c4=O)C(O)C3O)C(O)C(O)C2NC(=O)/C=C/CCCCCCCCC(C)C)OC(CO)C(O)C1O (stereo not drawn) [Tunicamycin C]	tr (trace (6.5-9 mm))	10 mm	16		inhibit the growth	36	28	14
